Format in all cases: cell-based
The test system of assay [1] is melanocytes (melan-a) [멜라닌 세포(melan-a)]. The assay can be described thus: 멜라닌 생성 촉진 효과 시험 (melanin production promoting effect, absorbance at 405 nm). The note with it: 3 days.
The test system of assay [2] is tyrosinase [티로시나제(tyrosinase)]. The assay can be described thus: 멜라노사이트에서의 티로시나제 발현 촉진 효과 (western blot, 501mel). Conditions: for activity at 100 µM / activity at 50 ppm: IBMX 100 μM, icariside B2 50 ppm, negative control (DMSO 0.1%) = 100, read-out: tyrosinase expression relative to negative control. Background: In western blotting, separated proteins are transferred to a membrane and probed.

The test system of assay [3] is MITF. The assay can be described thus: 멜라노사이트에서의 MITF 발현 촉진 효과 (western blot, 501mel). The note with it: for activity at 100 µM / activity at 50 ppm: IBMX 100 μM, icariside B2 50 ppm, negative control (DMSO 0.1%) = 100, read-out: MITF expression relative to negative control.

SMILES strings stand for the structures. Read-outs that look alike come from different tables or passages of the source.

Regarding `CC(C)Cn1c(=O)n(C)c(=O)c2[nH]cnc21` [IBMX, 3-isobutyl-1-methylxanthine, reference compound], the activity at 100 µM in assay [1] (72 h, IBMX 100 μM, 37℃, negative control (0.1% DMSO) = 100, read-out: ratio of melanin quantity to negative control) came out at 116%; in assay [2] (24 h), 160%; in assay [2] (48 h) it was 149%; in assay [2] (72 h), 298%; in assay [3] (24 h), 121%; in assay [3] (48 h), 98%. In assay [3] (72 h), the activity at 100 µM is 224%.
On to `CC(=O)C=CC12OC1(C)CC(OC1OC(CO)C(O)C(O)C1O)CC2(C)C` (stereo not shown) [이카리시드 B2, icariside B2], for which the “melanin production promoting effect compared with positive control (result in words)” value in assay [1] (100 ppm vs IBMX 100 μM) is reported as “양성대조군보다 높은 멜라닌 생성 촉진 효과”. The activity at 50 ppm in assay [1] (72 h, 50 ppm, 37℃, negative control (0.1% DMSO) = 100, read-out: ratio of melanin quantity to negative control) turned out to be 103%; in assay [2] (24 h), 126%; in assay [2] (48 h), 132%; in assay [2] (72 h) it was 180%; in assay [3] (24 h), 85%; in assay [3] (48 h), 107%. For the same compound, in assay [3] (72 h), the activity at 50 ppm was 115%. For the same compound, in assay [1] (72 h, 100 ppm, 37℃, negative control (0.1% DMSO) = 100, read-out: ratio of melanin quantity to negative control), the activity at 100 ppm is 127%. The “melanin production (result in words)” value in assay [1] is listed as “멜라닌 생성이 늘어났으며”. For the same compound, the “tyrosinase protein expression (result in words)” value in assay [2] (50 ppm, 24-72 h) is given as “단백질 발현을 상승시킴”. The “MITF protein expression (result in words)” value in assay [3] (50 ppm, 24-72 h) is “단백질 발현을 상승시킴”.
